Measured values: US20070212690A1, “Folate Antagonists Having Improved Selectivity” (Serenex, Inc., priority 2003, published 2007)

Legend:
DHFR = assay: Elution of purine-binding proteins from ATP-Sepharose column with the compound; set-up: species or system porcine liver, porcine lidney, HeLa cells, whole mice; conditions: lysate on ATP-Sepharose; methotrexate 10 nM to 500 μM; SDS gel, silver stain, MALDI
Procedure: (§1) Molecular targets for the folate antagonist methotrexate were identified as follows. Cell or tissue lysates were produced from porcine liver, porcine lidney, HeLa cells, and whole mice. This lysate was run over an ATP-Sepharose™ column in order to extract all purine-binding proteins. […] The ATP-Sepharose™ washed several times, and then eluted with methotrexate at concentrations ranging from 10 nM to 500 μM to identify proteins that bound to this compound. The eluted fractions were run on a 1-dimensional SDS polyacrylamide gel. The eluted proteins were then stained with silver stain, cut out of the gel, and identified using matrix-assisted laser deionization/ionization (MALDI). […] The experiment was also repeated using folate to elute the purine binding proteome from the ATP-Sepharose column.

glutathione synthase = assay: as above; set-up: species or system porcine liver, porcine lidney, HeLa cells, whole mice; conditions: lysate on ATP-Sepharose; methotrexate 10 nM to 500 μM; SDS gel, silver stain, MALDI
Procedure: as §1

biotin carboxylase = assay: as above; set-up: species or system porcine liver, porcine lidney, HeLa cells, whole mice; conditions: lysate on ATP-Sepharose; methotrexate 10 nM to 500 μM; SDS gel, silver stain, MALDI
Procedure: (§2) Molecular targets for the folate antagonist methotrexate were identified as follows. Cell or tissue lysates were produced from porcine liver, porcine lidney, HeLa cells, and whole mice. This lysate was run over an ATP-Sepharose™ column in order to extract all purine-binding proteins. […] The ATP-Sepharose™ washed several times, and then eluted with methotrexate at concentrations ranging from 10 nM to 500 μM to identify proteins that bound to this compound. The eluted fractions were run on a 1-dimensional SDS polyacrylamide gel. The eluted proteins were then stained with silver stain, cut out of the gel, and identified using matrix-assisted laser deionization/ionization (MALDI).

[1] = system: the same proteins that were eluted from ATP-Sepharose with methotrexate; assay: Elution of lysate proteins from methotrexate covalently linked to agarose; type: binding, porcine liver, porcine lidney, HeLa cells, whole mice; conditions: lysates applied to methotrexate covalently linked to agarose
Procedure: as §2

[2] = system: methylcrotonyl-CoA carboxylase; assay: Elution of purine-binding proteins from ATP-Sepharose column with the compound; set-up: species or system porcine liver, porcine lidney, HeLa cells, whole mice; conditions: lysate on ATP-Sepharose; methotrexate 10 nM to 500 μM; SDS gel, silver stain, MALDI
Procedure: as §2

acetyl-CoA carboxylase = assay: as above; set-up: species or system porcine liver, porcine lidney, HeLa cells, whole mice; conditions: lysate on ATP-Sepharose; methotrexate 10 nM to 500 μM; SDS gel, silver stain, MALDI
Procedure: as §2

pyruvate carboxylase = assay: as above; set-up: species or system porcine liver, porcine lidney, HeLa cells, whole mice; conditions: lysate on ATP-Sepharose; methotrexate 10 nM to 500 μM; SDS gel, silver stain, MALDI
Procedure: as §1

GART = assay: as above; conditions: lysate on ATP-Sepharose; methotrexate 10 nM to 500 μM; SDS gel, silver stain, MALDI
Procedure: as §1

[3] = system: propionyl-CoA carboxylase; assay: as above; set-up: species or system porcine liver, porcine lidney, HeLa cells, whole mice; conditions: lysate on ATP-Sepharose; methotrexate 10 nM to 500 μM; SDS gel, silver stain, MALDI
Procedure: as §1

CN(Cc1cnc2nc(N)nc(N)c2n1)c1ccc(C(=O)N[C@@H](CCC(=O)O)C(=O)O)cc1 [methotrexate]
DHFR eluted from ATP-Sepharose by the compound (indicates binding) (DHFR): eluted
glutathione synthase eluted from ATP-Sepharose by the compound (indicates binding) (glutathione synthase): eluted
biotin carboxylase eluted from ATP-Sepharose by the compound (indicates binding) (biotin carboxylase): eluted
same proteins eluted from methotrexate-agarose with methotrexate (confirmation of targets) [1]: also eluted from methotrexate agarose with methotrexate
methylcrotonyl-CoA carboxylase eluted from ATP-Sepharose by the compound (indicates binding) [2]: eluted
acetyl-CoA carboxylase eluted from ATP-Sepharose by the compound (indicates binding) (acetyl-CoA carboxylase): eluted
pyruvate carboxylase eluted from ATP-Sepharose by the compound (indicates binding) (pyruvate carboxylase): eluted
GART eluted from ATP-Sepharose by the compound (indicates binding) (GART): eluted
propionyl-CoA carboxylase eluted from ATP-Sepharose by the compound (indicates binding) [3]: eluted
